What all share (assay): AK assay 384-well format, Prestwick library screening
In one assay the test system is E. coli. The class given is cell-based, Escherichia coli. To be noted: Escherichia coli, 3 h, 50 μM final drug concentration.
Assay [1] concerns S. aureus strain USA300-0114. The class given is cell-based, Staphylococcus aureus. The following applies: Staphylococcus aureus, USA300, 3 h, 50 μM final drug concentration.
In another assay the test system is P. aeruginosa. The class given is cell-based, Pseudomonas aeruginosa. To be noted: Pseudomonas aeruginosa, 3 h, 50 μM final drug concentration.
For assay [2], the system named is A. baumannii strain 98-37-09. The class given is cell-based, Acinetobacter baumannii. The following applies: Acinetobacter baumannii, 983709, 3 h, 50 μM final drug concentration.
The subject of the next assay is E. faecium. The class given is cell-based, Enterococcus faecium. To be noted: Enterococcus faecium, 3 h, 50 μM final drug concentration.
The subject of another assay is E. cloacae. The class given is cell-based, Enterobacter cloacae. To be noted: Enterobacter cloacae, 3 h, 50 μM final drug concentration.
Another assay concerns K. pneumoniae. The class given is cell-based, Klebsiella pneumoniae. To be noted: Klebsiella pneumoniae, 3 h, 50 μM final drug concentration.
[3] abbreviates: 384-well format, cutoff for positive-scoring molecules 3-fold increase, read-out: AK-based Prestwick Library Screening Results, E. coli (increase in extracellular AK activity).
Setting [4] is: 384-well format, cutoff for positive-scoring molecules 3-fold increase, read-out: AK-based Prestwick Library Screening Results, S. aureus (increase in extracellular AK activity).
Setting [5] is: 384-well format, cutoff for positive-scoring molecules 3-fold increase, read-out: AK-based Prestwick Library Screening Results, P. aeruginosa (increase in extracellular AK activity).
[6] abbreviates: 384-well format, cutoff for positive-scoring molecules 3-fold increase, read-out: AK-based Prestwick Library Screening Results, A. baumannii (increase in extracellular AK activity).
Setting [7] is: 384-well format, cutoff for positive-scoring molecules 3-fold increase, read-out: AK-based Prestwick Library Screening Results, E. faecium (increase in extracellular AK activity).
Where [8] appears, read: 384-well format, cutoff for positive-scoring molecules 3-fold increase, read-out: AK-based Prestwick Library Screening Results, E. cloacae (increase in extracellular AK activity).
The mark [9] stands for this setting: 384-well format, cutoff for positive-scoring molecules 3-fold increase, read-out: AK-based Prestwick Library Screening Results, K. pneumoniae (increase in extracellular AK activity).

The source of these data is patent publication US10004701B2, “Methods and compositions for treating infection” (UNIVERSITY OF ROCHESTER, priority 2012, dated 2018).

Counter-ions that a name gives are not always drawn. Like-named read-outs stand apart in the source and are kept apart here.

Consider `COc1ccccc1OCC(O)CO` (stereo not shown) [Guaifenesin], for which the fold induction at 50 µM with E. coli ([…], read-out: AK-based Prestwick Library Screening Results, E. coli (fold increase in extracellular AK activity)) was 1.1; in assay [1] ([…], read-out: AK-based Prestwick Library Screening Results, S. aureus (fold increase in extracellular AK activity)), 1.2; in the assay on P. aeruginosa ([…], read-out: AK-based Prestwick Library Screening Results, P. aeruginosa (fold increase in extracellular AK activity)), 1.1; in assay [2] ([…], read-out: AK-based Prestwick Library Screening Results, A. baumannii (fold increase in extracellular AK activity)) it was 1; with E. faecium ([…], read-out: AK-based Prestwick Library Screening Results, E. faecium (fold increase in extracellular AK activity)), 1; in the assay on E. cloacae ([…], read-out: AK-based Prestwick Library Screening Results, E. cloacae (fold increase in extracellular AK activity)) it was 1.6. The fold induction at 50 µM with K. pneumoniae ([…], read-out: AK-based Prestwick Library Screening Results, K. pneumoniae (fold increase in extracellular AK activity)) amounted to 0.8.

With `N=C(N)N/N=C/c1c(Cl)cccc1Cl` [Guanabenz acetate], the fold induction at 50 µM in the assay on E. coli (setting [3]) worked out at 0.7; in assay [1] (setting [4]), 0.5; with P. aeruginosa (setting [5]) it was 0.6; in assay [2] (setting [6]), 0.8; with E. faecium (setting [7]), 1; in the assay with E. cloacae (setting [8]), 0.7. Further, the fold induction at 50 µM in the assay on K. pneumoniae (setting [9]) worked out at 0.4.

As for `N=C(N)NCCN1CCCCCCC1` [Guanethidine sulfate], the fold induction at 50 µM was 1.4 in the assay on E. coli (planktonic E. coli, 384-well, […], read-out: AK-based Prestwick Library Screening Results: E. coli (increase in extracellular AK activity)); 1.1 in assay [1] (planktonic S. aureus, 384-well, […], read-out: AK-based Prestwick Library Screening Results: S. aureus (increase in extracellular AK activity)); 1.4 in the assay on P. aeruginosa (planktonic P. aeruginosa, 384-well, […], read-out: AK-based Prestwick Library Screening Results: P. aeruginosa (increase in extracellular AK activity)); 1.3 in assay [2] (planktonic A. baumannii, 384-well, […], read-out: AK-based Prestwick Library Screening Results: A. baumannii (increase in extracellular AK activity)); 1.1 in the assay with E. faecium (planktonic E. faecium, 384-well, […], read-out: AK-based Prestwick Library Screening Results: E. faecium (increase in extracellular AK activity)); 1.4 in the assay on E. cloacae (planktonic E. cloacae, 384-well, […], read-out: AK-based Prestwick Library Screening Results: E. cloacae (increase in extracellular AK activity)). For the same compound, the fold induction at 50 µM with K. pneumoniae (planktonic K. pneumoniae, 384-well, […], read-out: AK-based Prestwick Library Screening Results: K. pneumoniae (increase in extracellular AK activity)) amounted to 1.1.

Regarding `N=C(N)NC(=O)Cc1c(Cl)cccc1Cl` [Guanfacine hydrochloride], the fold induction at 50 µM with E. coli (planktonic E. coli, cutoff for positive-scoring molecules 3-fold increase, read-out: AK-based Prestwick Library Screening Results, E. coli (increase in extracellular AK activity)) came to 0.8; in assay [1] (planktonic S. aureus, cutoff for positive-scoring molecules 3-fold increase, read-out: AK-based Prestwick Library Screening Results, S. aureus (increase in extracellular AK activity)), 0.6; with P. aeruginosa (planktonic P. aeruginosa, cutoff for positive-scoring molecules 3-fold increase, read-out: AK-based Prestwick Library Screening Results, P. aeruginosa (increase in extracellular AK activity)) it was 0.7; in assay [2] (planktonic A. baumannii, cutoff for positive-scoring molecules 3-fold increase, read-out: AK-based Prestwick Library Screening Results, A. baumannii (increase in extracellular AK activity)) it was 0.7; with E. faecium (planktonic E. faecium, cutoff for positive-scoring molecules 3-fold increase, read-out: AK-based Prestwick Library Screening Results, E. faecium (increase in extracellular AK activity)) it was 1.1; in the assay with E. cloacae (planktonic E. cloacae, cutoff for positive-scoring molecules 3-fold increase, read-out: AK-based Prestwick Library Screening Results, E. cloacae (increase in extracellular AK activity)), 0.9. The fold induction at 50 µM with K. pneumoniae (planktonic K. pneumoniae, cutoff for positive-scoring molecules 3-fold increase, read-out: AK-based Prestwick Library Screening Results, K. pneumoniae (increase in extracellular AK activity)) stood at 0.5.

For the compound `CC1(C)O[C@@H]2C[C@H]3[C@@H]4CCC5=CC(=O)CC[C@]5(C)[C@@]4(F)[C@@H](O)C[C@]3(C)[C@]2(C(=O)CCl)O1` [Halcinonide], the fold induction at 50 µM amounted to 0.6 with E. coli (planktonic, cutoff for positive-scoring molecules 3-fold increase, read-out: AK-based Prestwick Library Screening Results, E. coli (fold increase in extracellular AK activity)); 0.6 in assay [1] (planktonic, cutoff for positive-scoring molecules 3-fold increase, read-out: AK-based Prestwick Library Screening Results, S. aureus (fold increase in extracellular AK activity)); 0.7 in the assay on P. aeruginosa (planktonic, cutoff for positive-scoring molecules 3-fold increase, read-out: AK-based Prestwick Library Screening Results, P. aeruginosa (fold increase in extracellular AK activity)); 0.7 in assay [2] (planktonic, cutoff for positive-scoring molecules 3-fold increase, read-out: AK-based Prestwick Library Screening Results, A. baumannii (fold increase in extracellular AK activity)); 0.9 in the assay with E. faecium (planktonic, cutoff for positive-scoring molecules 3-fold increase, read-out: AK-based Prestwick Library Screening Results, E. faecium (fold increase in extracellular AK activity)); 0.8 with E. cloacae (planktonic, cutoff for positive-scoring molecules 3-fold increase, read-out: AK-based Prestwick Library Screening Results, E. cloacae (fold increase in extracellular AK activity)). The fold induction at 50 µM in the assay on K. pneumoniae (planktonic, cutoff for positive-scoring molecules 3-fold increase, read-out: AK-based Prestwick Library Screening Results, K. pneumoniae (fold increase in extracellular AK activity)) was 0.5.

With `CCCCN(CCCC)CCC(O)c1cc2c(Cl)cc(Cl)cc2c2cc(C(F)(F)F)ccc12` (stereo not shown) [Halofantrine hydrochloride], the fold induction at 50 µM in the assay with E. coli (planktonic E. coli, positive cutoff 3-fold increase, read-out: AK-based Prestwick library screening result, E. coli (fold increase in extracellular AK activity)) was found to be 1; in assay [1] (planktonic S. aureus, positive cutoff 3-fold increase, read-out: AK-based Prestwick library screening result, S. aureus (fold increase in extracellular AK activity)), 1.2; in the assay on P. aeruginosa (planktonic P. aeruginosa, positive cutoff 3-fold increase, read-out: AK-based Prestwick library screening result, P. aeruginosa (fold increase in extracellular AK activity)), 1.1; in assay [2] (planktonic A. baumannii, positive cutoff 3-fold increase, read-out: AK-based Prestwick library screening result, A. baumannii (fold increase in extracellular AK activity)) it was 1.3; in the assay on E. faecium (planktonic E. faecium, positive cutoff 3-fold increase, read-out: AK-based Prestwick library screening result, E. faecium (fold increase in extracellular AK activity)), 1; in the assay on E. cloacae (planktonic E. cloacae, positive cutoff 3-fold increase, read-out: AK-based Prestwick library screening result, E. cloacae (fold increase in extracellular AK activity)), 1.3. Also, the fold induction at 50 µM in the assay with K. pneumoniae (planktonic K. pneumoniae, positive cutoff 3-fold increase, read-out: AK-based Prestwick library screening result, K. pneumoniae (fold increase in extracellular AK activity)) came to 1.1.

Take `O=C(CCCN1CCC(O)(c2ccc(Cl)cc2)CC1)c1ccc(F)cc1` [Haloperidol]: the fold induction at 50 µM turned out to be 0.9 with E. coli (setting [3]); 0.8 in assay [1] (setting [4]); 0.9 with P. aeruginosa (setting [5]); 1 in assay [2] (setting [6]); 0.9 in the assay on E. faecium (setting [7]); 1.1 in the assay on E. cloacae (setting [8]). Further, the fold induction at 50 µM in the assay on K. pneumoniae (setting [9]) stood at 0.6.
